Results published in patent US8686002B2, “Heterocyclic compounds and their use as binding partners for 5-HT5 receptors” (AbbVie Deutschland GmbH & Co. KG, priority 2005, dated 2014).

Target: 5-HT5A (Homo sapiens, UniProt P47898)
Assay: Affinity of selected compounds for 5-HT5A (Ki)
Assay type: binding
Experimental: In both assays, different concentrations of the test substances are used and the Ki and IC50 values are determined.

Sequence of 5-HT5A (P47898 whole entry): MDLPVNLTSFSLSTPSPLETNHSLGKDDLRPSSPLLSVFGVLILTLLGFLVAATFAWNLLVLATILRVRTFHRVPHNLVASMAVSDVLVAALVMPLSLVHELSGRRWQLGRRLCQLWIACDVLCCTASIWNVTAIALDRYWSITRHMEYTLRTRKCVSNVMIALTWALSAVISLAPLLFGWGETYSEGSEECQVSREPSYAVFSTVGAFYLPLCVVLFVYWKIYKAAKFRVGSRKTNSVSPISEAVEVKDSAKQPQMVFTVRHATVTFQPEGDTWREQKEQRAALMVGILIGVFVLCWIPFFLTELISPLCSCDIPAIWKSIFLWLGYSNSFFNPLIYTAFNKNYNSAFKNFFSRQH

Compound | Ki [µM]
3-(2-Methoxybenzyl)-N-(1-naphthylmethyl)-3,4-dihydroquinazolin-2-amine hydrochloride [Example 99] | < 10
COc1ccccc1Cc1cc2ccccc2nc1N [Example 1, 3-(2-Methoxybenzyl)quinolin-2-amine] | < 0.3
COc1cccc(O)c1Cc1cc2ccccc2nc1N [Example 2, 2-[(2-Aminoquinolin-3-yl)methyl]-3-methoxyphenol] | < 0.3
COc1cccc(OC)c1Cc1cc2ccccc2nc1N [Example 3, 3-(2,6-Dimethoxybenzyl)quinolin-2-amine] | < 0.3
CCOc1cccc(OC)c1Cc1cc2ccccc2nc1N [Example 4, 3-(2-Ethoxy-6-methoxybenzyl)quinolin-2-amine] | < 0.3
COc1cccc(OC(C)C)c1Cc1cc2ccccc2nc1N [Example 5, 3-(2-Isopropoxy-6-methoxybenzyl)quinolin-2-amine] | < 0.3
COc1ccc2cc(Cc3ccccc3OC)c(N)nc2c1 [Example 6, 7-Methoxy-3-(2-methoxybenzyl)quinolin-2-amine] | < 0.3
COc1ccc2nc(N)c(Cc3ccccc3OC)cc2c1 [Example 7, 6-Methoxy-3-(2-methoxybenzyl)quinolin-2-amine] | < 0.3
COc1cccc(OC)c1Cc1cc2cc(Cl)ccc2nc1N [Example 9, 6-Chloro-3-(2,6-dimethoxybenzyl)quinolin-2-amine] | < 0.3
COc1ccccc1Cc1cc2cc(Cl)ccc2nc1N [Example 11] | < 0.3
COc1cccc(OC)c1Cc1cc2cc3c(cc2nc1N)OCO3 [Example 12] | < 0.3
COc1cc2cc(Cc3c(OC)cccc3OC)c(N)nc2cc1OC [Example 13, 3-(2,6-Dimethoxybenzyl)-6,7-dimethoxy-quinolin-2-amine] | < 0.3
COc1ccccc1Cc1cc2cc3c(cc2nc1N)OCO3 [Example 14, 7-(2-Methoxybenzyl)[1.3]dioxolo[4.5-g]quinolin-6-amine] | < 0.3
COc1ccccc1Cc1cc2ccc(Cl)cc2nc1N [Example 15, 7-Chloro-3-(2-methoxybenzyl)quinolin-2-amine] | < 0.3
COc1ccccc1Cc1cc2cc(OC)c(OC)cc2nc1N [Example 16, 6,7-Dimethoxy-3-(2-methoxybenzyl)quinolin-2-amine] | < 0.3
COc1cccc(F)c1Cc1cc2cc3c(cc2nc1N)OCO3 [Example 17, 7-(2-Fluoro-6-methoxybenzyl)[1.3]dioxolo[4.5-g]quinolin-6-amine] | < 0.3
COc1ccccc1Cc1cc2cc(F)ccc2nc1N [Example 18, 6-Fluoro-3-(2-methoxybenzyl)quinolin-2-amine] | < 0.3
COc1ccccc1Cc1cc2c(Cl)cccc2nc1N [Example 19, 5-Chloro-3-(2-methoxybenzyl)quinolin-2-amine] | < 0.3
COc1cccc(OC)c1Cc1cc2cccnc2nc1N [Example 21, 3-(2,6-Dimethoxybenzyl)-1,8-naphthyridin-2-amine] | < 10
COc1cccc(OC)c1Cc1cc2cnccc2nc1N [Example 22, 3-(2,6-Dimethoxybenzyl)-1,6-naphthyridin-2-amine] | < 0.3
COc1cccc(OC)c1Cc1cc2cc(F)ccc2nc1N [Example 23, 3-(2,6-Dimethoxybenzyl)-6-fluoroquinolin-2-amine] | < 0.3
COc1cccc(F)c1Cc1cc2cc(F)ccc2nc1N [Example 24, 6-Fluoro-3-(2-fluoro-6-methoxybenzyl)quinolin-2-amine] | < 0.3
Nc1nc2ccccc2cc1Cc1ccccc1O [Example 25, 2-[(2-Aminoquinolin-3-yl)methyl]phenol] | < 0.3
COc1cccc(F)c1Cc1cc2ccc(Cl)cc2nc1N [Example 26, 7-Chloro-3-(2-fluoro-6-methoxybenzyl)quinolin-2-amine] | < 0.3
COc1cccc(Cl)c1Cc1cc2ccc(Cl)cc2nc1N [Example 27, 7-Chloro-3-(2-chloro-6-methoxybenzyl)quinolin-2-amine] | < 0.3
